Consider six compounds from ChEMBL document CHEMBL2069188, “Structural requirements for the antitubercular quaternized triflupromazine pharmacophore” (Bioorg Med Chem Lett, 2012).

The structures appear in SMILES notation. Values after ≈ are worked out from the molar mass of the structure shown. Some results are limits rather than exact numbers.

The test system of this assay is Mycobacterium tuberculosis. The assay is described as follows: Antitubercular activity against highly drug-resistant, non replicating, persistent Mycobacterium tuberculosis harboring Vibrio harveyii luciferase gene incubated under anaerobic condition measured after 28 hrs of aerobic recovery by LORA method. The format is functional.
As usually defined, the MIC90 is an inhibitory concentration at the 90% level, which refers to growth in some studies and to a panel of isolates in others. Lower therefore signals higher susceptibility. The compound `C[N+](C)(CCCN1c2ccccc2Sc2ccc(C(F)(F)F)cc21)Cc1ccc(Br)cc1.[Br-]` showed an MIC90 of 7.1 µM.

Consider `C[N+](C)(CCCN1c2ccccc2Sc2ccc(C(F)(F)F)cc21)Cc1ccc(Cl)cc1.[Cl-]`, for which the MIC90 was 7.8 µM.

In the case of `CO[C@H]1/C=C/O[C@@]2(C)Oc3c(C)c(O)c4c(O)c(c(/C=N/N5CCN(C)CC5)c(O)c4c3C2=O)NC(=O)/C(C)=C\C=C\[C@H](C)[C@H](O)[C@@H](C)[C@@H](O)[C@@H](C)[C@H](OC(C)=O)[C@@H]1C` [RIFAMPIN], the MIC90 turned out to be 0.61 µM (≈ 0.502 µg/mL). This MIC90 lies about 13-fold lower than the previous one.

`C[N+](C)(CCCN1c2ccccc2Sc2ccc(C(F)(F)F)cc21)Cc1ccc(I)cc1.[Br-]` came in with an MIC90 of 7.2 µM. Against the preceding compound, the MIC90 is about 12-fold higher.

As for `FC(F)(F)c1ccc2c(c1)N(Cc1cn(Cc3ccc(Cl)cc3)nn1)c1ccccc1S2`, the MIC90 was above 100 µM.

As to `C[N+](C)(CCCN1c2ccccc2Sc2ccc(C(F)(F)F)cc21)Cc1ccc(F)cc1.[Cl-]`, the MIC90 was 14.3 µM.
